Data from patent publication US7612087B2, “Heterocyclic compounds as inhibitors of beta-lactamases” (Novexel, priority 2002, dated 2009).
Where a name gives a salt, the structure may show the parent alone.

Tests used:
[1] = test system: E. coli 250HT22 (Tem2); assay: MIC, micro-dilution in liquid medium, β-lactamine with product at 5 mg/l; assay type: cell-based; details: compound at 5 mg/l, 24 hours at 37° C.; for MIC of Cefotaxime in combination with the compound: Trial 3, 250HT22 E. coli Tem2; for MIC of Piperacillin in combination with the compound: Trial 3, 250HT22 Tem2
How it was run: (§1)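 Strains were seeded into liquid-medium dilutions of β-lactamine, each supplemented with a fixed 5 mg/l of test compound, and held 24 hours at 37° C in a heating chamber. Minimal inhibitory concentration was the level at which bacterial development was wholly absent.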

[2] = test system: E. cloacae 293HT6 (Class C); assay: as above; assay type: cell-based; details: compound at 5 mg/l, 24 hours at 37° C.; for MIC of Piperacillin in combination with the compound: Trial 9, 293HT6 Class; for MIC of Cefotaxime in combination with the compound: Trial 9, 293HT6 E. cloacae Class C
How it was run: as §1

[3] = test system: S. aureus 011GO66 (PeniR); assay: as above; assay type: cell-based; details: compound at 5 mg/l, 24 hours at 37° C.; for MIC of Cefotaxime in combination with the compound: Trial 1, 011GO66 S. aureus PeniR; for MIC of Piperacillin in combination with the compound: Trial 1, 011GO66 peniR
How it was run: as §1

[4] = test system: E. coli 250HT21 (Tem1); assay: as above; assay type: cell-based; details: compound at 5 mg/l, 24 hours at 37° C.; for MIC of Cefotaxime in combination with the compound: Trial 2, 250HT21 E. coli Tem1; for MIC of Piperacillin in combination with the compound: Trial 2, 250HT21 Tem1
How it was run: as §1

[5] = test system: E. coli 250BE1 (SHV4); assay: as above; assay type: cell-based; details: compound at 5 mg/l, 24 hours at 37° C.; for MIC of Cefotaxime in combination with the compound: Trial 7, 250BE1 E. coli SHV4; for MIC of Piperacillin in combination with the compound: Trial 7, 250BE1 SHV4
How it was run: as §1

[6] = test system: E. coli 250SJ1 (Tem7); assay: as above; assay type: cell-based; details: compound at 5 mg/l, 24 hours at 37° C.; for MIC of Cefotaxime in combination with the compound: Trial 5, 250SJ1 E. coli Tem7; for MIC of Piperacillin in combination with the compound: Trial 5, 250SJ1 Tem7
How it was run: as §1

[7] = test system: E. coli 250HT26 (SHV1); assay: as above; assay type: cell-based; details: compound at 5 mg/l, 24 hours at 37° C.; for MIC of Cefotaxime in combination with the compound: Trial 6, 250HT26 E. coli SHV1; for MIC of Piperacillin in combination with the compound: Trial 6, 250HT26 SHV1
How it was run: as §1

[8] = test system: P. aeruginosa 391HT7 (PSE); assay: as above; assay type: cell-based; details: compound at 5 mg/l, 24 hours at 37° C.; for MIC of Cefotaxime in combination with the compound: Trial 11, 391HT7 P. aeruginosa PSE; for MIC of Piperacillin in combination with the compound: Trial 11, 391HT7 PSE
How it was run: as §1

[9] = test system: P. aeruginosa 391HT8 (PSE); assay: as above; assay type: cell-based; details: compound at 5 mg/l, 24 hours at 37° C.; for MIC of Cefotaxime in combination with the compound: Trial 12, 391HT8 P. aeruginosa PSE; for MIC of Piperacillin in combination with the compound: Trial 12, 391HT8 PSE
How it was run: as §1

[10] = test system: E. coli 250HT23 (Class D); assay: as above; assay type: cell-based; details: compound at 5 mg/l, 24 hours at 37° C.; for MIC of Piperacillin in combination with the compound: Trial 8, 250HT23 Class D; for MIC of Cefotaxime in combination with the compound: Trial 8, 250HT23 E. coli Class D
How it was run: as §1

[11] = test system: Serratia 301HT6; assay: as above; assay type: cell-based; details: compound at 5 mg/l; Trial 10, 301HT6 Serratia; 24 hours at 37° C.
How it was run: as §1

[12] = biological target: T1, β-lactamase P99 (Enterobacter cloacae, UniProt P05364); assay: biochemical
T1 construct: The β-lactamases are isolated from bacterial strains which are resistant to penicillins and cephalosporins; endogenous in cells; host or cells: Enterobacter cloacae 293HT6 (natural producer; French-press lysate, 100,000 g supernatant)
T1 sequence (P05364 21-381): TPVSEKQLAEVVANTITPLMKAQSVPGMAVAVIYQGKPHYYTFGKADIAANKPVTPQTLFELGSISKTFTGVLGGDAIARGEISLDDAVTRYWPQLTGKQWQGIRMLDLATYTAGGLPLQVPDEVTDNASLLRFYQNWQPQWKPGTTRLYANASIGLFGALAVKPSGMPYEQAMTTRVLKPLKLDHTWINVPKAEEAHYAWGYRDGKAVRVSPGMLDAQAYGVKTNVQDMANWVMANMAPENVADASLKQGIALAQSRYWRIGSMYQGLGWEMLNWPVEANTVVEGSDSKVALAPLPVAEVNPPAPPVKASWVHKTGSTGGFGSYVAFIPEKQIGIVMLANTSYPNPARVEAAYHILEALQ
How it was run: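 P99 β-lactamase, taken from the soluble fraction of an Enterobacter cloacae 293HT6 lysate, was assayed at 37° C. in 50 mM sodium phosphate buffer pH7.0 with 100 μM Nitrocefin as the chromogenic substrate. Hydrolysis was followed kinetically at 485 nm at initial speed, with and without a 5 mn enzyme–inhibitor preincubation. Inhibitors were tested at 6 or 8 concentrations in duplicate, and IC50 was fitted with GraFit.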

[13] = biological target: T2, β-lactamase TEM1 (Escherichia coli, UniProt P62593); assay: Inhibition of isolated β-lactamase Tem-1 (Nitrocefin hydrolysis); assay type: biochemical, E.coli 250HT21; details: 100 μM Nitrocefin, 50 mM sodium phosphate buffer pH7.0, 37° C.
T2 construct: The β-lactamases are isolated from bacterial strains which are resistant to penicillins and cephalosporins; endogenous in cells; host or cells: E. coli 250HT21 (natural producer; French-press lysate, 100,000 g supernatant)
T2 sequence (P62593 24-286 limits assumed): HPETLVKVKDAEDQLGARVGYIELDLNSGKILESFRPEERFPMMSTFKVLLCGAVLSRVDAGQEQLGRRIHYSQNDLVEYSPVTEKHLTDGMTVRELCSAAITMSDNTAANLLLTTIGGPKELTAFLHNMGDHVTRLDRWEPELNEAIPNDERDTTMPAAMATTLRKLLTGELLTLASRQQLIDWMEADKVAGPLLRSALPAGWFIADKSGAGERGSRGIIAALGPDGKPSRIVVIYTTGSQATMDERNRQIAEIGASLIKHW
How it was run: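 TEM-1 from soluble extract of E. coli 250HT21, normalized enzyme, 100 μM Nitrocefin in 50 mM sodium phosphate pH 7.0 at 37 °C. Initial-rate hydrolysis read kinetically at 485 nm, with and without 5 min enzyme–inhibitor preincubation. CI50 from 6 or 8 concentrations in duplicate.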

[14] = test system: E. coli 250CF1 (Tem3); assay: microbe, parasite or virus in culture; assay type: cell-based; details: compound at 5 mg/l, 24 hours at 37° C.; for MIC of Cefotaxime in combination with the compound: Trial 4, 250CF1 E. coli Tem3; for MIC of Piperacillin in combination with the compound: Trial 4, 250CF1 Tem3
How it was run: as §1

| Compound | MIC of Cefotaxime in combination with the compound [1] | MIC of Piperacillin in combination with the compound [1] [µg/mL] | MIC of Piperacillin in combination with the compound [2] [µg/mL] | MIC of Cefotaxime in combination with the compound [2] [µg/mL] | MIC of Cefotaxime in combination with the compound [3] [µg/mL] | MIC of Piperacillin in combination with the compound [3] [µg/mL] | MIC of Cefotaxime in combination with the compound [4] | MIC of Piperacillin in combination with the compound [4] [µg/mL] | MIC of Cefotaxime in combination with the compound [5] [µg/mL] | MIC of Piperacillin in combination with the compound [5] [µg/mL] | MIC of Cefotaxime in combination with the compound [6] | MIC of Piperacillin in combination with the compound [6] [µg/mL] | MIC of Piperacillin in combination with the compound [7] [µg/mL] | MIC of Piperacillin in combination with the compound [8] [µg/mL] | MIC of Piperacillin in combination with the compound [9] [µg/mL] | MIC of Piperacillin in combination with the compound [10] [µg/mL] | MIC of Piperacillin in combination with the compound [11] [µg/mL] | IC50 [12] [nM] | IC50 [13] [nM] | MIC of Piperacillin in combination with the compound [14] [µg/mL] | also measured |
| --- | --- | --- | --- | --- | --- | --- | --- | --- | --- | --- | --- | --- | --- | --- | --- | --- | --- | --- | --- | --- | --- |
| NC(=O)C(Cc1ccccc1)NC(=O)C1CCC2CN1C(=O)N2OS(=O)(=O)O (stereo not drawn) [Example 44, sodium salt of trans-N-(1-amino-1-oxo-3-phenyl-2-propyl)-7-oxo-6-(sulphooxy)-1,6-diazabicyclo[3.2.1]octane-2-carboxamide] | 0.15 µg/mL | >40 | >40 | >40 | 2.5 | 2.5 | <=0.04 μg/ml | 5 | 0.6 | >40 | 0.08 µg/mL | >40 | >40 | >40 | >40 | 40 | >40 | 100 | 59 | 40 | MIC of Cefotaxime in combination with the compound [7]: 0.08 µg/mL; MIC of Cefotaxime in combination with the compound [8]: >40 µg/mL; MIC of Cefotaxime in combination with the compound [9]: >40 µg/mL; MIC of Cefotaxime in combination with the compound [10]: <=0.04 μg/ml; MIC of Cefotaxime in combination with the compound [11]: 10 µg/mL; MIC of Cefotaxime in combination with the compound [14]: 0.3 µg/mL |
| NC(=O)CNC(=O)C1CCC2CN1C(=O)N2OS(=O)(=O)O (stereo not drawn) [Example 45, sodium salt of trans-N-(2-amino-2-oxoethyl)-7-oxo-6-(sulphooxy)-1,6-diazabicyclo[3.2.1]octane-2-carboxamide] | – | 2.5 | 1.2 | – | – | 1.2 | – | 1.2 | – | 5 | – | 2.5 | 2.5 | >40 | >40 | 10 | 0.6 | 60 | 12 | 2.5 | – |
| NC(=O)COC(=O)C1CCC2CN1C(=O)N2OS(=O)(=O)O (stereo not drawn) [Example 48, sodium salt of trans 2-amino-2-oxoethyl 7-oxo-6-(sulphooxy)-1,6-diazabicyclo[3.2.1]octane-2-carboxylate] | <=0.04 μg/ml | 2.5 | 2.5 | 0.15 | 2.5 | 1.2 | <=0.04 μg/ml | 0.6 | 0.08 | 2.5 | <=0.04 μg/ml | 1.2 | 1.2 | >40 | >40 | 5 | 0.6 | 120 | 15 | 1.2 | MIC of Cefotaxime in combination with the compound [7]: <=0.04 μg/ml; MIC of Cefotaxime in combination with the compound [8]: 40 µg/mL; MIC of Cefotaxime in combination with the compound [9]: >40 µg/mL; MIC of Cefotaxime in combination with the compound [10]: <=0.04 μg/ml; MIC of Cefotaxime in combination with the compound [11]: <=0.04 μg/ml; MIC of Cefotaxime in combination with the compound [14]: <=0.04 μg/ml |
